Results: patent publication US20230322761A1, “DEGRADATION OF BRUTON'S TYROSINE KINASE (BTK) BY CONJUGATION OF BTK INHIBITORS WITH E3 LIGASE LIGAND AND METHODS OF USE” (BEIGENE, LTD., priority 2020, published 2023)

The compounds below were run against T1, BTK (Homo sapiens, UniProt Q06187) (assay: BTK degradation in TMD-8 cells, HTRF assay after 6 h treatment). Conditions: IC50 (DC50) of BTK degradation.
T1 construct: endogenous in cells; host or cells: TMD-8 cells
Type: cell-based
Method: TMD-8 cells are treated with compounds diluted in 0.2% DMSO, dilution is done according to the following protocol: (1) make 500× stock solution in DMSO from 1 mM by 6-fold dilution, total 8 doses were included; (2) make 2× solution in cell culture medium by transferring 0.5 μl 500× stock solution into 125 μl medium; (3) 15 μl of 2× solution is added to cells and incubate for 6 h.
After 6 h treatment, add 10 μl 4×lysis buffer to each well; seal the plate and incubate 30 min at room temperature on a plate shaker; Once the cells are lysed, 16 μL of cell lysate are transferred to a PE 384-well HTRF detection plate; 4 μL of pre-mixed HTRF antibodies are added to each well; Cover the plate with a plate sealer, spin 1000 rpm for 1 min, Incubate overnight at room temperature; Read on BMG PheraStar with HTRF protocol (337 nm-665 nm-620 nm).
The IC50 (DC50) value of a compound can be obtained by fitting the following equation
Y=Bottom+(TOP−Bottom)/(1+((IC50/X)^hillslope))
Wherein, X and Y are known values, and IC50, Hillslope, Top and Bottom are the parameters obtained by fitting with software. Y is the inhibition percentage (calculated from the equation), X is the concentration of the compound; IC50 is the concentration of the compound when the 50% inhibition is reached. The smaller the IC50 value is, the stronger the inhibitory ability of the compound is. Vice versa, the higher the IC50 value is, the weaker the ability the inhibitory ability of the compound is; Hillslope represents the slope of the fitted curve, generally around 1*; Bottom represents the minimum value of the curve obtained by data fitting, which is generally 0%±20%; Top represents the maximum value of the curve obtained by data fitting, which is generally 100%±20%. The experimental data were fitted by calculating and analyzing with Dotmatics data analysis software.

T1 sequence (Q06187 whole entry): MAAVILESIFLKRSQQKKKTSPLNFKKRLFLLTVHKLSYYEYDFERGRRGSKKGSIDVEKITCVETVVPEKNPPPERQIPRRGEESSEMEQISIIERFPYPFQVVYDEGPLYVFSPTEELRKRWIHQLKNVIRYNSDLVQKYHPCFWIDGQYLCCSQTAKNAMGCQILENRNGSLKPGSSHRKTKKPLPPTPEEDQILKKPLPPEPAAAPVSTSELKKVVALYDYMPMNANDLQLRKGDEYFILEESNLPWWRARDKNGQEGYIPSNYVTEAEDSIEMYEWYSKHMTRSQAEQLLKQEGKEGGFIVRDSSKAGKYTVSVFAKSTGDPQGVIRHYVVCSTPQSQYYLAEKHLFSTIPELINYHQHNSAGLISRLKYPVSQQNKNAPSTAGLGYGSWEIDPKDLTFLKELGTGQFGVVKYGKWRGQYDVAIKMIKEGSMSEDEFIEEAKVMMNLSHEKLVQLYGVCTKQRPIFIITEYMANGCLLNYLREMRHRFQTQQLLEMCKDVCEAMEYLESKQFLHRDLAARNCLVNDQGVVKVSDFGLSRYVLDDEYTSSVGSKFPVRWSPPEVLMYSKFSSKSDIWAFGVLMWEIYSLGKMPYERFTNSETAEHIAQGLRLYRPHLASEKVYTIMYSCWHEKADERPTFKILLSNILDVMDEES

SMILES | DC50
Cc1cc(-c2n[nH]c3ncc(-c4ccc(N5CC6CC5CN6CCc5ccc(N6CCC(=O)NC6=O)cc5)cn4)cc23)ccc1[C@@H](C)NC(=O)c1noc(C(C)(C)C)n1 (stereo partly drawn) [Example 132, 5-(tert-butyl)-N-((1R)-1-(4-(5-(5-(5-(4-(2,4-dioxotetrahydropyrimidin-1(2H)-yl)phenethyl)-2,5-diazabicyclo[2.2.1]heptan-2-yl)pyridin-2-yl)-1H-pyrazolo[3,4-b]pyridin-3-yl)-2-methylphenyl)ethyl)-1,2,4-oxadiazole-3-carboxamide] | > 2000 nM
Cc1cc(-c2n[nH]c3ncc(-c4ccc(N5CCN(CC6CCN(c7ccc(N8CCC(=O)NC8=O)c(Cl)c7)CC6)CC5)cc4)cc23)ccc1[C@@H](C)NC(=O)c1noc(C(C)(C)C)n1 [Example 115, (R)-5-(tert-butyl)-N-(1-(4-(5-(4-(4-((1-(3-chloro-4-(2,4-dioxotetrahydropyrimidin-1(2H)-yl)phenyl)piperidin-4-yl)methyl)piperazin-1-yl)phenyl)-1H-pyrazolo[3,4-b]pyridin-3-yl)-2-methylphenyl)ethyl)-1,2,4-oxadiazole-3-carboxamide] | 4.87 nM
COc1ccc(C(=O)N2CCC(c3ccc(-c4cnc5[nH]nc(-c6ccc(CNC(=O)c7nc(C(C)(C)C)no7)c(F)c6)c5c4)cc3)CC2)cc1N1CCC(=O)NC1=O [Example 18, 3-(tert-butyl)-N-(4-(5-(4-(1-(3-(2,4-dioxotetrahydropyrimidin-1(2H)-yl)-4-methoxybenzoyl)piperidin-4-yl)phenyl)-1H-pyrazolo[3,4-b]pyridin-3-yl)-2-fluorobenzyl)-1,2,4-oxadiazole-5-carboxamide] | > 2000 nM
Cc1cc(N2CCC(CN3CCN(c4ccc(-c5cnc6[nH]nc(-c7ccc([C@@H](C)NC(=O)c8noc(C(C)(C)C)n8)c(CO)c7)c6c5)cn4)CC3)CC2)ccc1N1CCC(=O)NC1=O [Example 179, (R)-5-(tert-butyl)-N-(1-(4-(5-(6-(4-((1-(4-(2,4-dioxotetrahydropyrimidin-1(2H)-yl)-3-methylphenyl)piperidin-4-yl)methyl)piperazin-1-yl)pyridin-3-yl)-1H-pyrazolo[3,4-b]pyridin-3-yl)-2-(hydroxymethyl)phenyl)ethyl)-1,2,4-oxadiazole-3-carboxamide] | 6.28 nM
Cc1cc(-c2n[nH]c3ncc(-c4ccc(C5(F)CCN(CC6CCN(c7ccc(N8CCC(=O)NC8=O)cc7)CC6)CC5)cn4)cc23)ccc1[C@@H](C)NC(=O)c1nc(C(C)(C)C)no1 [Example 205, (R)-3-(tert-butyl)-N-(1-(4-(5-(5-(1-((1-(4-(2,4-dioxotetrahydropyrimidin-1(2H)-yl)phenyl)piperidin-4-yl)methyl)-4-fluoropiperidin-4-yl)pyridin-2-yl)-1H-pyrazolo[3,4-b]pyridin-3-yl)-2-methylphenyl)ethyl)-1,2,4-oxadiazole-5-carboxamide] | 0.736 nM
Cc1cc(-c2n[nH]c3ncc(-c4ccc(N5CCN(CCc6ccc([C@H]7CCC(=O)NC7=O)cc6)CC5)cc4)cc23)ccc1[C@@H](C)NC(=O)c1noc(C(C)(C)C)n1 [Example 111, 5-(tert-butyl)-N—((R)-1-(4-(5-(4-(4-(4-((R)-2,6-dioxopiperidin-3-yl)phenethyl)piperazin-1-yl)phenyl)-1H-pyrazolo[3,4-b]pyridin-3-yl)-2-methylphenyl)ethyl)-1,2,4-oxadiazole-3-carboxamide] | 4.93 nM
Cc1cc(-c2n[nH]c3ncc(-c4ccc(C5CCN(CC6CCN(c7ccc(N8CCC(=O)NC8=O)c(C)c7)CC6)CC5)nc4)cc23)ccc1CNC(=O)c1nc(C(C)(C)C)no1 [Example 105, 3-(tert-butyl)-N-(4-(5-(6-(1-((1-(4-(2,4-dioxotetrahydropyrimidin-1(2H)-yl)-3-methylphenyl)piperidin-4-yl)methyl)piperidin-4-yl)pyridin-3-yl)-1H-pyrazolo[3,4-b]pyridin-3-yl)-2-methylbenzyl)-1,2,4-oxadiazole-5-carboxamide] | 3.55 nM
Cc1cc(-c2n[nH]c3ncc(-c4ccc(N5CCN(CCc6ccc(N7CCC(=O)NC7=O)c(C)c6)CC5)cc4)cc23)ccc1[C@@H](C)NC(=O)c1noc(C(C)(C)C)n1 [Example 119, (R)-5-(tert-butyl)-N-(1-(4-(5-(4-(4-(4-(2,4-dioxotetrahydropyrimidin-1(2H)-yl)-3-methylphenethyl)piperazin-1-yl)phenyl)-1H-pyrazolo[3,4-b]pyridin-3-yl)-2-methylphenyl)ethyl)-1,2,4-oxadiazole-3-carboxamide] | 2.12 nM
Cc1cc(-c2n[nH]c3ncc(-c4ccc(C5CCN(CCCOc6ccc(NC7CCC(=O)NC7=O)cc6)CC5)cc4)cc23)ccc1CNC(=O)c1noc(C(C)(C)C)n1 (stereo not shown) [Example 2, 5-(tert-butyl)-N-(4-(5-(4-(1-(3-(4-((2,6-dioxopiperidin-3-yl)amino)phenoxy)propyl)piperidin-4-yl)phenyl)-1H-pyrazolo[3,4-b]pyridin-3-yl)-2-methylbenzyl)-1,2,4-oxadiazole-3-carboxamide] | 0.953 nM
CC(C)(C)c1noc(C(=O)NCc2ccc(-c3n[nH]c4ncc(-c5ccc(N6CCN(CC7CCN(c8ccc(N9CCC(=O)NC9=O)cc8)CC7)CC6)cc5)cc34)cc2F)n1 [Example 11, 3-(tert-butyl)-N-(4-(5-(4-(4-((1-(4-(2,4-dioxotetrahydropyrimidin-1(2H)-yl)phenyl)piperidin-4-yl)methyl)piperazin-1-yl)phenyl)-1H-pyrazolo[3,4-b]pyridin-3-yl)-2-fluorobenzyl)-1,2,4-oxadiazole-5-carboxamide] | 5.98 nM
Cc1cc(-c2n[nH]c3ncc(-c4ccc(N5CCN(CC6CCN(c7ccc(N8CCC(=O)NC8=O)cc7)CC6)CC5)cc4)cc23)ccc1[C@@H](C)NC(=O)c1ccc(C(C)(C)O)cc1F [Example 96, (R)—N-(1-(4-(5-(4-(4-((1-(4-(2,4-dioxotetrahydropyrimidin-1(2H)-yl)phenyl)piperidin-4-yl)methyl)piperazin-1-yl)phenyl)-1H-pyrazolo[3,4-b]pyridin-3-yl)-2-methylphenyl)ethyl)-2-fluoro-4-(2-hydroxypropan-2-yl)benzamide] | > 2000 nM
Cc1cc(-c2n[nH]c3ncc(-c4ccc(N5CC6CC5CN6CCc5ccc(C6CCC(=O)NC6=O)cc5)cn4)cc23)ccc1[C@@H](C)NC(=O)c1noc(C(C)(C)C)n1 (stereo partly drawn) [Example 133, 5-(tert-butyl)-N-((1R)-1-(4-(5-(5-(5-(4-(2,6-dioxopiperidin-3-yl)phenethyl)-2,5-diazabicyclo[2.2.1]heptan-2-yl)pyridin-2-yl)-1H-pyrazolo[3,4-b]pyridin-3-yl)-2-methylphenyl)ethyl)-1,2,4-oxadiazole-3-carboxamide] | 1.96 nM
Cc1cc(-c2n[nH]c3ncc(-c4ccc(N5CCN(CCc6ccc([C@H]7CCC(=O)NC7=O)cc6)CC5)cc4)cc23)ccc1CNC(=O)c1cn(C(C)(C)C)nn1 [Example 150, (R)-1-(tert-butyl)-N-(4-(5-(4-(4-(4-(2,6-dioxopiperidin-3-yl)phenethyl)piperazin-1-yl)phenyl)-1H-pyrazolo[3,4-b]pyridin-3-yl)-2-methylbenzyl)-1H-1,2,3-triazole-4-carboxamide] | 8.88 nM
Cc1cc(-c2n[nH]c3ncc(-c4ccc(N5CCC(CN6CCN(c7ccc(N8CCC(=O)NC8=O)cc7)CC6)CC5)cc4)cc23)ccc1[C@@H](C)NC(=O)c1noc(C(C)(C)C)n1 [Example 144, (R)-5-(tert-butyl)-N-(1-(4-(5-(4-(4-((4-(4-(2,4-dioxotetrahydropyrimidin-1(2H)-yl)phenyl)piperazin-1-yl)methyl)piperidin-1-yl)phenyl)-1H-pyrazolo[3,4-b]pyridin-3-yl)-2-methylphenyl)ethyl)-1,2,4-oxadiazole-3-carboxamide] | 1.93 nM
Cc1cc(-c2n[nH]c3ncc(-c4ccc(N5CCN(CCc6ccc7c(c6)C[C@]6(CC(=O)NC6=O)C7)CC5)cc4)cc23)ccc1[C@@H](C)NC(=O)c1nc(C(C)(C)C)no1 [Example 206, 3-(tert-butyl)-N—((R)-1-(4-(5-(4-(4-(2-((S)-2′,5′-dioxo-1,3-dihydrospiro[indene-2,3′-pyrrolidin]-5-yl)ethyl)piperazin-1-yl)phenyl)-1H-pyrazolo[3,4-b]pyridin-3-yl)-2-methylphenyl)ethyl)-1,2,4-oxadiazole-5-carboxamide] | > 2000 nM
Cc1cc(-c2n[nH]c3ncc(-c4ccc(N5CCN(CC(F)(F)c6ccc(C7CCC(=O)NC7=O)cn6)CC5)cc4)cc23)ccc1[C@@H](C)NC(=O)c1nc(C(C)(C)C)no1 (stereo partly drawn) [Example 192, 3-(tert-butyl)-N-((1R)-1-(4-(5-(4-(4-(2-(5-(2,6-dioxopiperidin-3-yl)pyridin-2-yl)-2,2-difluoroethyl)piperazin-1-yl)phenyl)-1H-pyrazolo[3,4-b]pyridin-3-yl)-2-methylphenyl)ethyl)-1,2,4-oxadiazole-5-carboxamide] | 4.03 nM

Same assay, conditions: TMD8, maximum percentage of inhibition (degradation)

SMILES | Dmax
COc1ccc(C(=O)N2CCC(c3ccc(-c4cnc5[nH]nc(-c6ccc(CNC(=O)c7nc(C(C)(C)C)no7)c(F)c6)c5c4)cc3)CC2)cc1N1CCC(=O)NC1=O [Example 18, 3-(tert-butyl)-N-(4-(5-(4-(1-(3-(2,4-dioxotetrahydropyrimidin-1(2H)-yl)-4-methoxybenzoyl)piperidin-4-yl)phenyl)-1H-pyrazolo[3,4-b]pyridin-3-yl)-2-fluorobenzyl)-1,2,4-oxadiazole-5-carboxamide] | 3.39%
Cc1cc(-c2n[nH]c3ncc(-c4ccc(C5CCN(CCCOc6ccc(NC7CCC(=O)NC7=O)cc6)CC5)cc4)cc23)ccc1CNC(=O)c1noc(C(C)(C)C)n1 (stereo not shown) [Example 2, 5-(tert-butyl)-N-(4-(5-(4-(1-(3-(4-((2,6-dioxopiperidin-3-yl)amino)phenoxy)propyl)piperidin-4-yl)phenyl)-1H-pyrazolo[3,4-b]pyridin-3-yl)-2-methylbenzyl)-1,2,4-oxadiazole-3-carboxamide] | 96.2%
CC(C)(C)c1noc(C(=O)NCc2ccc(-c3n[nH]c4ncc(-c5ccc(N6CCN(CC7CCN(c8ccc(N9CCC(=O)NC9=O)cc8)CC7)CC6)cc5)cc34)cc2F)n1 [Example 11, 3-(tert-butyl)-N-(4-(5-(4-(4-((1-(4-(2,4-dioxotetrahydropyrimidin-1(2H)-yl)phenyl)piperidin-4-yl)methyl)piperazin-1-yl)phenyl)-1H-pyrazolo[3,4-b]pyridin-3-yl)-2-fluorobenzyl)-1,2,4-oxadiazole-5-carboxamide] | 94.1%
